Data published in US7833698B2, “Method for determining the response to cancer therapy” (Ventana Medical Systems, Inc., priority 2000, dated 2010).

What was measured:
Type in all cases: cell-based, human
MCF7 cells [1] = test: SA-β-Gal staining of drug-treated MCF7 cells; details: treated 2-3 days with 50 nM doxorubicin or Taxol, stained 10-11 days after release from the drug
Description: Cells were washed in PBS, fixed for 3-5 minutes at room temperature in 2% formaldehyde and 0.2% glutaraldehyde (or in 3% formaldehyde alone), washed, and incubated at 37° C. in fresh senescence-associated β-Gal (SA-β-Gal) staining solution (1 mg/ml 5-bromo-4-chloro-3-indolyl β-D-galactoside (X-Gal), 20 mg/ml dimethylformamide; 40 mM citric acid/sodium phosphate, pH 6.0; 5 mM potassium ferrocyanide; 5 mM potassium ferricyanide; 150 mM NaCl; 2 mM MgCl2. Staining was evident following 2-4 hours of incubation and maximal staining was reached after in 12-16 hours. To detect lysosomal β-Gal, the staining solution was prepared with citric acid/sodium phosphate at pH 4.0 (Baselga et al., 1999, Proceedings of AACR NCI EORTC International Conference, Abstract 98).
Red and green filters are suitable for practice of the invention. For SA-β-Gal, a green filter (500 nm) is used to determine the total cytoplasmic area stained with red eosin and compared with the blue area stained for SA-β-Gal (600 nm) as determined using a red filter. […] It is recognized that there are various other staining or optical enhancement methods and filtering methods which can be used to optically enhance one particular area or feature over another cell feature (such as Fast green and eosin).
Cellular changes are induced by treatment with moderate doses of doxorubicin and Taxol in breast tumor-derived human cell lines. […]

MCF7 cells [2] = test: Flow cytometric analysis of drug-treated MCF7 cells; details: 50 nM, 2-3 days
Description: Cellular changes are induced by treatment with moderate doses of doxorubicin and Taxol in breast tumor-derived human cell lines. MCF7 cells were treated for 2-3 days with 50 nM doxorubicin or Taxol (doses that induce growth inhibition and cellular death as measured by flow cytometry; as described by, e.g., Dolbeare et al., 1983, Proc. Natl. Acad. Sci. U.S.A. 80:5573-77) and then were stained for SA-β-Gal expression 10-11 days after release from the drug.

MCF7 cells [3] = test: p53 and p21CIPI/WAF1 immunostaining with image analysis in MCF7 cells; details: MCF7 treated for 3 days with doxorubicin
From the text: The expression of proteins associated with senescence or apoptosis are quantitated by image analysis using a suitable primary antibody (such as Ab-2 for p53, or Ab-1 for WAF1, HSP60, or caspase 3), secondary antibody (such as rabbit anti-mouse IgG), and tertiary ABC complex.
Tertiary ABC complexes are visualized by treating the sections with diaminobenizidine (DAB) stain under appropriate conditions. In a second step, the tissue is counterstained with another optical enhancement factor, preferably ethyl green. The resulting preparation has green nuclei with varying degrees of brown diaminobenzidine (DAB) precipitate localized to the nuclei (and indicating the level of expression of p53, p21, p16, WAF1, HSP60, or caspase-3 protein). […] Spectral studies have shown that the ethyl green stain offers good spectral separation from the DAB precipitate of the immunoperoxidase technique such that different features of the image can be readily separated by filtering at two different wavelengths. […]
MCF7 cells were treated for 3 days with doxorubicin and then stained for p53 and p21^CIPI/WAF1 expression. Cells were cultured, stained, and analyzed as described above for SA-β-Gal using appropriate antibodies.

| SMILES | Percentage of Cells Expressing SA-β-Gal (MCF7 cells [1]) [%] | Cellular outcome in flow cytometry histogram / SA-β-Gal+ morphology (MCF7 cells [2]) | Cells stained for p21CIPI/WAF1 (% Cells) (MCF7 cells [3]) | Cells stained for p53 (% Cells) (MCF7 cells [3]) |
| --- | --- | --- | --- | --- |
| COc1cccc2c1C(=O)c1c(O)c3c(c(O)c1C2=O)C[C@@](O)(C(=O)CO)C[C@@H]3O[C@H]1C[C@H](N)[C@H](O)[C@H](C)O1 [Doxorubicin, doxorubicin] | 24 | resulted in senescence and blocks at G1, G2, and G2M | 50.81 ± 6 | 23.93 ± 7 |
| CC(=O)O[C@H]1C(=O)[C@@]2(C)[C@H]([C@H](OC(=O)c3ccccc3)[C@]3(O)C[C@H](OC(=O)[C@H](O)[C@@H](NC(=O)c4ccccc4)c4ccccc4)C(C)=C1C3(C)C)[C@]1(OC(C)=O)CO[C@@H]1C[C@@H]2O [Taxol] | 13 | apoptosis is evident by the hypodiploid peak |  |  |
